Patent publication US5952333A, “Quinazoline derivative” (Zeneca Limited, priority 1995, dated 1999)

Assays:
[1] = system: human naso-pharyngeal cancer cell line KB; experiment: In vitro inhibition of the EGF-stimulated growth of the human naso-pharyngeal cancer cell line KB (test (b)); assay type: cell-based; settings: 72 h, approximate value, KB cells, EGF (10 ng/ml), 3 days, MTT
Experimental: (b) An in vitro assay which determines the ability of a test compound to inhibit the EGF-stimulated growth of the human naso-pharyngeal cancer cell line KB.
KB cells were seeded into wells at a density of 1×10^4 -1.5×10^4 cells per well and grown for 24 hours in DMEM supplemented with 5% FCS (charcoal-stripped). Cell growth was determined after incubation for 3 days by the extent of metabolism of MTT tetrazolium dye to furnish a bluish color. Cell growth was then determined in the presence of EGF (10 ng/ml) or in the presence of EGF (10 ng/ml) and a test compound at a range of concentrations. An IC50 value could then be calculated.

[2] = molecular target: T1, EGF receptor tyrosine kinase (Homo sapiens, UniProt P00533); experiment: In vitro inhibition of the enzyme EGF receptor tyrosine kinase (test (a)); assay type: biochemical; settings: approximate value, enzyme partially purified from A431 cells, with EGF, 25° C., 10 minutes
T1 construct: Receptor tyrosine kinase was obtained in partially purified form from A431 cells; endogenous in cells; host or cells: A431 cells (human vulval carcinoma); Triton X-100-solubilised membrane fraction
Experimental: (a) An in vitro assay which determines the ability of a test compound to inhibit the enzyme EGF receptor tyrosine kinase. Receptor tyrosine kinase was obtained in partially purified form from A431 cells (derived from human vulval carcinoma) by the procedures described below which are related to those described by Carpenter et al., J. Biol. Chem., 1979, 254,4884, Cohen et al., J. Biol. Chem, 1982, 257, 1523 and by Braun et al., J. Biol. Chem., 1984, 259, 2051.
A-431 cells were grown to confluence using Dulbecco's modified Eagle's medium (DMEM) containing 5% fetal calf serum (FCS). The obtained cells were homogenised in a hypotonic borate/EDTA buffer at pH 10.1. The homogenate was centrifuged at 400 g for 10 minutes at 0-4° C. The supernatant was centrifuged at 25,000 g for 30 minutes at 0-4° C. […]
The test compound/EGF mixture solution (5 μl) was added to the test enzyme solution (10 μl) and the mixture was incubated at 0-4° C. for 30 minutes. […] Radioactivity present in the filter paper was measured using a liquid scintillation counter (Sequence A). […]
Receptor tyrosine kinase inhibition was calculated as follows: [formula]
The extent of inhibition was then determined at a range of concentrations of test compound to give an IC50 value.

[3] = system: xenografts of the human vulval epidermoid carcinoma cell line A431; experiment: In vivo inhibition of growth of A431 xenografts in athymic nude mice (test (c)); parameters: species or system athymic nude mice (strain ONU:Alpk); human tumour; settings: approximate, daily dose of 50 mg/kg, usually orally, once daily, usually 13 days, relative to untreated controls
Experimental: (c) An in-vivo assay in a group of athymic nude mice (strain ONU:Alpk) which determines the ability of a test compound (usually administered orally as a ball-milled suspension in 0.5% polysorbate) to inhibit the growth of xenografts of the human vulval epidermoid carcinoma cell line A431. A431 cells were maintained in culture in DMEM supplemented with 5% FCS and 2 mM glutamine. Freshly cultured cells were harvested by trvpsinization and injected subcutaneously (10 million cells/0.1 ml/mouse) into both flanks of a number of donor nude mice. When sufficient tumour material was available (after approximately 9 to 14 days), fragments of tumour tissue were transplanted in the flanks of recipient nude mice (test day 0). Generally, on the seventh day after transplantation (test day 7) groups of 7 to 10 mice with similar-sized tumours were selected and dosing of the test compound was commenced. Once daily dosing of test compound was continued for a total of 13 days (test days 7 to 19 inclusive). In some studies the dosing of the test compound was continued beyond test day 19, for example to test day 26. In each case. on the following test day the animals were killed and the final tumour volume was calculated from measurements of the length and width of the tumours. Results were calculated as a percentage inhibition of tumour volume relative to untreated controls.

[4] = system: human mammary carcinoma which expresses EGF receptor tyrosine kinase; settings: athymic nude mice; Toi et al., 1990; cited from earlier work

T1 sequence (P00533 25-1210): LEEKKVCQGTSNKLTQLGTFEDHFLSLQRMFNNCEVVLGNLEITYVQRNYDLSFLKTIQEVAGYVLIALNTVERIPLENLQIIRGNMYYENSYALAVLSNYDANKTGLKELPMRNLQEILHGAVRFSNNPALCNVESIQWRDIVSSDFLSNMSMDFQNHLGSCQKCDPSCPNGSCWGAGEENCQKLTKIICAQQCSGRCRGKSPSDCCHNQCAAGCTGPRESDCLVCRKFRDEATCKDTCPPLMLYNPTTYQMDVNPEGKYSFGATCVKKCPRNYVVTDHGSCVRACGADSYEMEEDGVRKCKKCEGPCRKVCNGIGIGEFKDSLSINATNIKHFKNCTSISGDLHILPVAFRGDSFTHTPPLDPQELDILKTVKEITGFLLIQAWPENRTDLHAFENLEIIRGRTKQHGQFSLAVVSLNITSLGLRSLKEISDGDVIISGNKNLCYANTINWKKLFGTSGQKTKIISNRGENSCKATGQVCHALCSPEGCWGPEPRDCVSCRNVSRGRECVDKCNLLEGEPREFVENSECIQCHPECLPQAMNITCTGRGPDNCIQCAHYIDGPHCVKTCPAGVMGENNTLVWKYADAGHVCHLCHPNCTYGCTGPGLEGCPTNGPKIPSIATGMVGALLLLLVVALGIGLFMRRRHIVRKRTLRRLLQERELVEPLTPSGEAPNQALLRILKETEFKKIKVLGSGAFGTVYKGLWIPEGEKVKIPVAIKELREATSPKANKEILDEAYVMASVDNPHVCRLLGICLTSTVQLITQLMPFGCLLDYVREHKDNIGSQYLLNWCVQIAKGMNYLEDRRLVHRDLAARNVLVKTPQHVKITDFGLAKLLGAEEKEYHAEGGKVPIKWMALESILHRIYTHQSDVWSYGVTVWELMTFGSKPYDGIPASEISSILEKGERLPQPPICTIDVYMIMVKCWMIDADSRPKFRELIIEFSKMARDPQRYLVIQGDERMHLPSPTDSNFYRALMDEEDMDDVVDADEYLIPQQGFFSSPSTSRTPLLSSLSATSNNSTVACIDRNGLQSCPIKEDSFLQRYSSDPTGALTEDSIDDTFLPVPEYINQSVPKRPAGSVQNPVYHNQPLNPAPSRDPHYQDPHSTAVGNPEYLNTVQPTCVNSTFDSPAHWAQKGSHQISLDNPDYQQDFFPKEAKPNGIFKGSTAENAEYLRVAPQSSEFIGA

SMILES	IC50 [1]	IC50 [2]	inhibition of tumour volume [3]	growth of transplanted human mammary carcinoma which expresses EGF receptor tyrosine kinase [4]
COCCNc1cc2c(Nc3cccc(C)c3)ncnc2cc1OC [compound of the invention, 6-(2-methoxyethylamino)-7-methoxy-4-(3'-methylanilino)quinazoline]	~200 nM	~10 nM	~50%	–
O=CN/C=C/c1cc(O)ccc1O [erbstatin]	–	–	–	specifically attenuates the growth
